Reference: patent US6593319B1, “Fusidic acid derivatives” (Leo Pharmaceutical Products, Ltd. A/S, priority 2001, dated 2003)

Key:
S. aureus/1 Aus-pe = assay: MIC, microtitter plates, liquid medium containing broth; assay type: cell-based; conditions: FusS, MRSA
Experimental: (§1) In vitro investigations have evidenced high potency of compounds of the invention against several bacteria including staphylococci, streptococci, corynebacteriae and mycobacteriae. […] The biological tests are conducted on microtitter plates using liquid medium containing broth.

Streptococcus - gr.G/59 = assay: as above; assay type: cell-based
Experimental: as §1

S. aureus/ATCC 29213 = assay: as above; assay type: cell-based; conditions: FusS, MSSA
Experimental: as §1

[1] = tested on: E. faecalis/V583 P. Cour.; assay: as above; assay type: cell-based; conditions: VanR
Experimental: as §1

N. gonorrhoea/C1 = assay: as above; assay type: cell-based
Experimental: as §1

N. meningitidis/K1 = assay: as above; assay type: cell-based
Experimental: as §1

Streptococcus - gr.C/68 = assay: as above; assay type: cell-based
Experimental: as §1

[2] = tested on: Streptococcus - gr.A/67011; assay: as above; assay type: cell-based
Experimental: as §1

P. acnes/1060 = assay: as above; assay type: cell-based
Experimental: as §1

Staphylococcus/379-2 = assay: as above; assay type: cell-based; conditions: Staphylococcus/379-2, coagulase negative, FusR
Experimental: as §1

M. tuberculosis/R 498 = assay: as above; assay type: cell-based
Experimental: as §1

S. aureus/54 USA-br = assay: as above; assay type: cell-based; conditions: FusR, MSSA
Experimental: as §1

C. diphteria/62001 = assay: as above; assay type: cell-based
Experimental: as §1

Streptococcus - gr.B/61 = assay: as above; assay type: cell-based
Experimental: as §1

S. aureus/22 DK = assay: as above; assay type: cell-based; conditions: FusS, MSSA
Experimental: as §1

Staphylococcus/291-2 = assay: as above; assay type: cell-based; conditions: Staphylococcus/291-2, coagulase negative, FusS
Experimental: as §1

[3] = tested on: Strep. epidermis A. ATCC12228; assay: MIC, agar diffusion method (European Pharmacopoeia 3rd Ed.); assay type: cell-based
Experimental: (§2) The antibacterial activity of some of these compounds relative to fusidic acid appears from Table 2 showing MIC values for compounds of the invention. The method used is recommended by the European Pharmacopoeia 3rd Ed. (1997) for testing the potency of antibiotics. It is an agar diffusion method where the same volume of the tested solution is added to cavities in agar. The inhibition zones are a function of the concentration of the fusidic acid analogue used. All assays are run with fusidic acid (1) as the reference substance. The results in Table 2 differ from those of Table 1 due to the different experimental methods used.

[4] = tested on: Strep. faecium Leo id. E119(P); assay: as above; assay type: cell-based; conditions: Penicillin resistant
Experimental: as §2

S. aureus Leoid CJ234(R) = assay: as above; assay type: cell-based; conditions: MRSA and Rifampicin resistant
Experimental: as §2

S. aureus ATCC6538P = assay: as above; assay type: cell-based
Experimental: as §2

[5] = tested on: Strep. sp. Gr.B Leo id. EF6; assay: as above; assay type: cell-based
Experimental: as §2

S. aureus ATCC2977 = assay: as above; assay type: cell-based
Experimental: as §2

S. aureus Leo id. CJ232 = assay: as above; assay type: cell-based; conditions: S. aureus Leo id. CJ232, MRSA
Experimental: as §2

[6] = tested on: Strep. faecalis ATCC10541; assay: as above; assay type: cell-based
Experimental: as §2

[7] = Stability in ethanol solution (retained activity); assay type: physicochemical; conditions: solution in ethanol stored at 0° C. for 1 month

CC(=O)OC1CC2(C)C(CC(O)C3C4(C)CCC(O)C(C)C4CCC32C)C1C(CCC=C(C)C)C(=O)O [Compound 101, 17(S),20(S)-Dihydrofusidic Acid]
MIC values (concentrations in μg/ml required for 90% inhibition) (S. aureus/1 Aus-pe): 1 µg/mL
MIC values (concentrations in μg/ml required for 90% inhibition) (Streptococcus - gr.G/59): 8 µg/mL
MIC values (concentrations in μg/ml required for 90% inhibition) (S. aureus/ATCC 29213): 1 µg/mL
MIC values (concentrations in μg/ml required for 90% inhibition) [1]: 16 µg/mL
MIC values (concentrations in μg/ml required for 90% inhibition) (N. gonorrhoea/C1): 4 µg/mL
MIC values (concentrations in μg/ml required for 90% inhibition) (N. meningitidis/K1): 1 µg/mL
MIC values (concentrations in μg/ml required for 90% inhibition) (Streptococcus - gr.C/68): 4 µg/mL
MIC values (concentrations in μg/ml required for 90% inhibition) [2]: 64 µg/mL
MIC values (concentrations in μg/ml required for 90% inhibition) (P. acnes/1060): 0.5 µg/mL
MIC values (concentrations in μg/ml required for 90% inhibition) (Staphylococcus/379-2): 64 µg/mL
MIC values (concentrations in μg/ml required for 90% inhibition) (M. tuberculosis/R 498): 16 µg/mL
MIC values (concentrations in μg/ml required for 90% inhibition) (S. aureus/54 USA-br): 8 µg/mL
MIC values (concentrations in μg/ml required for 90% inhibition) (C. diphteria/62001): 0.063 µg/mL
MIC values (concentrations in μg/ml required for 90% inhibition) (Streptococcus - gr.B/61): >64 µg/mL
MIC values (concentrations in μg/ml required for 90% inhibition) (S. aureus/22 DK): 1 µg/mL
MIC values (concentrations in μg/ml required for 90% inhibition) (Staphylococcus/291-2): 1 µg/mL
MIC values (concentrations in μg/ml required for 90% inhibition) [3]: 0.001 µg/mL
MIC values (concentrations in μg/ml required for 90% inhibition) [4]: 1.2 µg/mL
MIC values (concentrations in μg/ml required for 90% inhibition) (S. aureus Leoid CJ234(R)): 0.001 µg/mL
MIC values (concentrations in μg/ml required for 90% inhibition) (S. aureus ATCC6538P): 0.002 µg/mL
MIC values (concentrations in μg/ml required for 90% inhibition) [5]: 3.5 µg/mL
MIC values (concentrations in μg/ml required for 90% inhibition) (S. aureus ATCC2977): 0.001 µg/mL
MIC values (concentrations in μg/ml required for 90% inhibition) (S. aureus Leo id. CJ232): 0.003 µg/mL
MIC values (concentrations in μg/ml required for 90% inhibition) [6]: 3.7 µg/mL
retained initial activity [7]: > 80%

CC(=O)O[C@H]1C[C@@]2(C)[C@@H](C[C@@H](O)[C@H]3[C@@]4(C)CC[C@@H](O)[C@@H](C)[C@@H]4CC[C@@]32C)[C@H]1[C@H](CCCC(C)C)C(=O)O [Compound 102, 17(S),20(S),24,25-Tetrahydrofusidic Acid]
MIC values (concentrations in μg/ml required for 90% inhibition) [3]: 0.015 µg/mL
MIC values (concentrations in μg/ml required for 90% inhibition) [4]: 3.9 µg/mL
MIC values (concentrations in μg/ml required for 90% inhibition) (S. aureus Leoid CJ234(R)): 0.009 µg/mL
MIC values (concentrations in μg/ml required for 90% inhibition) (S. aureus ATCC6538P): 0.016 µg/mL
MIC values (concentrations in μg/ml required for 90% inhibition) [5]: 3.4 µg/mL
MIC values (concentrations in μg/ml required for 90% inhibition) (S. aureus ATCC2977): 0.02 µg/mL
MIC values (concentrations in μg/ml required for 90% inhibition) (S. aureus Leo id. CJ232): 0.12 µg/mL
MIC values (concentrations in μg/ml required for 90% inhibition) [6]: MIC>64 μg/ml

CCC(=O)OC1CC2(C)C(CC(O)C3C4(C)CCC(O)C(C)C4CCC32C)C1C(CCC=C(C)C)C(=O)O [Compound 105, 16-Deacetoxy-16β-propionyloxy-17(S),20(S)-dihydrofusidic Acid]
MIC values (concentrations in μg/ml required for 90% inhibition) [3]: 0.08 µg/mL
MIC values (concentrations in μg/ml required for 90% inhibition) [4]: 3.9 µg/mL
MIC values (concentrations in μg/ml required for 90% inhibition) (S. aureus Leoid CJ234(R)): 0.063 µg/mL
MIC values (concentrations in μg/ml required for 90% inhibition) (S. aureus ATCC6538P): 0.22 µg/mL
MIC values (concentrations in μg/ml required for 90% inhibition) [5]: >64 µg/mL
MIC values (concentrations in μg/ml required for 90% inhibition) (S. aureus ATCC2977): 0.19 µg/mL
MIC values (concentrations in μg/ml required for 90% inhibition) (S. aureus Leo id. CJ232): 0.24 µg/mL
MIC values (concentrations in μg/ml required for 90% inhibition) [6]: >64 µg/mL

CC(C)=CCCC(C(=O)O)C1C(OC(=O)C2CCCCC2)CC2(C)C1CC(O)C1C3(C)CCC(O)C(C)C3CCC12C [Compound 113, 16-Deacetoxy-16β-cyclohexylcarbonyloxy-17(S),20(S)-dihydrofusidic acid]
MIC values (concentrations in μg/ml required for 90% inhibition) [3]: >64 µg/mL
MIC values (concentrations in μg/ml required for 90% inhibition) [4]: >64 µg/mL
MIC values (concentrations in μg/ml required for 90% inhibition) (S. aureus Leoid CJ234(R)): 16 µg/mL
MIC values (concentrations in μg/ml required for 90% inhibition) (S. aureus ATCC6538P): 16 µg/mL
MIC values (concentrations in μg/ml required for 90% inhibition) [5]: 4 µg/mL
MIC values (concentrations in μg/ml required for 90% inhibition) (S. aureus ATCC2977): 16 µg/mL
MIC values (concentrations in μg/ml required for 90% inhibition) (S. aureus Leo id. CJ232): 16 µg/mL
MIC values (concentrations in μg/ml required for 90% inhibition) [6]: >64 µg/mL
